Laboratory results from patent publication US5013743A, “Selective antibacterial agent against campytobacter” (Takeda Chemical Industries, Ltd., priority 1989, dated 1991).
Converted amounts (≈) assume the structure as drawn.

Tests used:
aerobic bacteria = assay: Antibacterial action against aerobic bacteria (Table 4, summary in words); type: cell-based; conditions: summary of Table 4
Excerpt: Antibacterial activities of some compounds of the present invention against aerobic common bacteria were examined.

C. pylori NCTC 11637 = assay: MIC, agar-plate dilution method, test strain B; type: cell-based; conditions: Helicobacter pylori, NCTC11637, 72 h, Brucella agar, 37° C., 3 days
Method: (§1) The minimum inhibitory concentration (MIC) of each compound was determined by the agar-plate dilution method based on the standard method advocated by Japan Society of Chemotherapy [cf: Chemotherapy, Jan. '81, p. 76]. The volume of agar medium per plate was 20 ml. Each of the test compounds was dissolved in dimethylsulfoxide at a concentration of 80 mg/ml or 40 mg/ml, and diluted 10 times with sterile distilled water. Furthermore, the aqueous solution of 8 mg/ml or 4 mg/ml was diluted serially 2-fold with sterile distilled water. To 2 ml of the diluted solution was added 18 ml of Brucella agar (BBL Microbiology Systems, Becton Dickinson and Co., Cockeysville, Md. 21030) containing 7% defibrinated horse blood (manufactured by Nippon Bio-supp. Center) and mixed well. Test strains frozen at -80° C. in Brucella broth (BBL) containing 10% horse serum were thawed and inoculated on a Brucella agar slant medium containing 7% defibrinated horse blood. The medium was incubated anaerobically at 37° C. for 3 days in a jar containing a piece of sponge sufficiently impregnated with water and Campy Pak™ (BBL). The organisms grown on the slant medium were collected and suspended in a Brucella broth to correspond to the turbidity of about 10^8 CFU/ml of common bacteria. One platinum loop of inoculum was streaked on the medium plates for determination. The plates were incubated under the same conditions as described above.

C. pylori KS 13 = assay: MIC, agar-plate dilution method, test strain E; type: cell-based; conditions: Helicobacter pylori, KS13, 72 h, Brucella agar, 37° C., 3 days
Method: as §1

C. pylori PCL 56 = assay: MIC, agar-plate dilution method, test strain C; type: cell-based; conditions: Helicobacter pylori, PCL56, 72 h, Brucella agar, 37° C., 3 days
Method: as §1, with “above. […] The results are shown in Table 2 and Table 3. | C: C. pylori PCL 56” for “above.”

[1] = Stability of the lyophilized compound (1) after being dissolved in vials, storage for 24 hours; type: physicochemical
Method: (§2) The resulting filtrate was filled in 1 ml portions into vials of a 12 cm^3 capacity, followed by lyophilization by means of the conventional technique.
(§3) *As measured by use of highperformance liquid chromatography (HPLC),
(§4) whereby the content determined immediately after preparation was taken as
(§5) Chromatographic conditions of HPLC:
(§6) Nucleosil 5 C18 (supplied by GasChro Kogyo K.K. of Japan) 4.0 mm
(§7) Methanol:water:triethylamine (60:40:1, pH 7)
(§8) UV spectrophotometry at 285 mm

genus Campylobacter = assay: Antibacterial activity against the genus Campylobacter (Tables 2 and 3, summary in words); type: cell-based, Campylobacter pylori; conditions: fluorinated alkyl derivatives vs other derivatives, Table 2 and Table 3
Method: as §1

[2] = Inspection of lyophilized compound (1) for solubility, appearance and content immediately after dissolution; type: physicochemical; conditions: for Appearance / Clarity / Content: after dissolution; for Content: taken as 100.0% (HPLC)
Method: as §2, §3, §4, §5, §6, §7, §8

[3] = type: in vivo; conditions: oral, mice, 200 mg/kg

## COc1ccc2[nH]c([S+]([O-])Cc3ncc(C)c(OC)c3C)nc2c1 (stereo not drawn) [Compound 2]
Aerobic bacteria
  antibacterial action against the aerobic bacteria: did not possess at all antibacterial action
C. pylori NCTC 11637
  MIC: 25 µg/mL (≈ 72.4 µM)
C. pylori KS 13
  MIC: 25 µg/mL (≈ 72.4 µM)
C. pylori PCL 56
  MIC: 12.5 µg/mL (≈ 36.2 µM)

## Cc1c(OCC(F)(F)F)ccnc1C[S+]([O-])c1nc2ccccc2[nH]1 (stereo not drawn) [Compound 1]
Aerobic bacteria
  antibacterial action against the aerobic bacteria: did not possess at all antibacterial action
C. pylori NCTC 11637
  MIC: 6.25 µg/mL (≈ 16.9 µM)
[1]; Solvents A to D, 24 hours
  change in content of compound (1): decrease slightly
  change in the stage of solution: no change in the stage of solution
[1]; after storage at 5° C. for 24 hrs., Solvent A
  Clarity: Clear
[1]; after storage at 5° C. for 24 hrs., Solvent B
  Clarity: Clear
[1]; after storage at 5° C. for 24 hrs., Solvent C
  Clarity: Clear
[1]; after storage at 5° C. for 24 hrs., Solvent D
  Clarity: Clear
[1]; after storage at 5° C. for 24 hrs., Solvents A to D
  Appearance: Slightly to lightly green-yellow
[1]; immediately after dissolution and after storage for 24 hours
  changes in appearance: slight changes in appearance
Genus Campylobacter
  antibacterial activity compared with other derivatives: stronger antibacterial activity
C. pylori KS 13
  MIC: 6.25 µg/mL (≈ 16.9 µM)
[2]; Solvent A
  pH after dissolution: 8.7
  Appearance: Colorless
  Clarity: Clear
  Content: 100%
[2]; Solvent A (N-methylglucamine, HCl, propylene glycol, ethanol)
  Solubility: Good
[2]; Solvent B
  pH after dissolution: 9.0
  Appearance: Colorless
  Clarity: Clear
  Content: 100%
[2]; Solvent B (N-methylglucamine, HCl, polyethylene glycol 400, ethanol, water)
  Solubility: Good
[2]; Solvent C
  pH after dissolution: 9.0
  Appearance: Colorless
  Clarity: Clear
  Content: 100%
[2]; Solvent C (N-methylglucamine, HCl, ethanol, propylene glycol, water)
  Solubility: Good
[2]; Solvent D
  pH after dissolution: 9.0
  Appearance: Colorless
  Clarity: Clear
  Content: 100%
[2]; Solvent D (N-methylglucamine, HCl, polyethylene glycol 400, water)
  Solubility: Good
[2]; Solvents A to D
  dissolution speed: dissolved quickly
  solubilities of the lyophilized powder in all of these solvents: excellent solubilities
C. pylori PCL 56
  MIC: 6.25 µg/mL (≈ 16.9 µM)

## Cc1c(OCC(F)(F)F)ccnc1CSc1nc2ccccc2[nH]1 [Compound 6]
Aerobic bacteria
  antibacterial action against the aerobic bacteria: did not possess at all antibacterial action
C. pylori NCTC 11637
  MIC: 12.5 µg/mL (≈ 35.4 µM)
Genus Campylobacter
  antibacterial activity compared with other derivatives: stronger antibacterial activity
C. pylori KS 13
  MIC: 12.5 µg/mL (≈ 35.4 µM)
[3]
  dead animals: no dead animals
C. pylori PCL 56
  MIC: 6.25 µg/mL (≈ 17.7 µM)
